From patent US11951092B2, “Agent for preventing or treating brain atrophy” (FUJIFILM Toyama Chemical Co., Ltd., priority 2017, dated 2024)

How the values were obtained:
[1] = tested on: mild to moderate AD patients (brain volume: whole brain, hippocampus); experiment: Test Example 2: Early Phase II placebo-controlled trial, brain volume change by volumetric MRI; assay type: in vivo, human
Source text: Multicenter Randomized Double-Blind Early Phase II Placebo-Controlled Trial for Assessing Effectiveness and Safety of Compound A in Mild to Moderate AD Patients
Patients were screened in a period from 28 days before treatment assignment to the assignment based on the following selection criteria. Patients matched (373 patients) were randomly divided into the following 2 groups and the trial was started.
Patients who were probable AD and over or 50 years old or older and 90 years old or younger at the time of obtaining consent of screening.
Patients with an MMSE score of 15 to 24 at the time of screening
(§1) Patients with a Modified Hachinski Ischemia Scale score of 4 or less
Patients who have been treated with a donepezil hydrochloride for at least 6 months before the baseline and with a stable dose thereof for 3 months before the baseline.
Patients whose brain MRI or CT results match AD at the time of screening Organization of groups:
(1) Active drug group: 224 mg of a test compound (160 mg in terms of Compound A) was orally administered once a day for 52 weeks (176 patients)
(2) Placebo group: placebo was orally administered once a day for 52 weeks (178 patients) Method of assessment:
(§2) Brain volume of subjects was measured by vMRI scan at the screening and after 52 weeks, and the volume change of the whole brain and the hippocampus of the subjects were quantified to assess brain atrophy based on the change from the screening.
The mean amount of volume change of the whole brain and the hippocampus after 52 weeks from the baseline, standard deviation and the difference from the placebo group were calculated.

[2] = tested on: mild to moderate AD patients (brain volume: whole brain, hippocampus, 101 areas); experiment: Test Example 1: Phase II placebo-controlled trial, brain volume change by volumetric MRI; assay type: in vivo, human; settings: for Change in brain volume, Hippocampus, Least square means / Change in brain volume, Whole brain, Least square means / Change in brain volume, Hippocampus, Difference from placebo group / Change in brain volume, Whole brain, Difference from placebo group: vMRI at week 52 from baseline
Source text: Multicenter Randomized Double-Blind Phase II Placebo-Controlled Trial for Assessing Effectiveness and Safety of Compound A in Mild to Moderate AD Patients Subject (selection criteria): Patients were screened in a period from 42 days before treatment assignment to the assignment based on the following selection criteria.
Patients who were probable AD and are 55 years old or older and 85 years old or younger at the time of obtaining consent of screening.
Patients with an MMSE score of 12 to 22 at the time of screening
as §1
Patients who have been treated with a donepezil hydrochloride or rivastigmine transdermal system for at least 4 months before the baseline and with a stable dose thereof for 3 months before the baseline.
In the case of patients who have received memantine in addition to being treated with a donepezil hydrochloride or rivastigmine transdermal system, patients who have been treated with memantine for at least 4 months before the baseline and with a stable dose thereof for 3 months before the baseline.
Patients whose brain MRI or CT results match AD at the time of screening
Organization of groups: Patients matched (484 patients) were randomly divided into the following 3 groups and the trial was started.
(1) High dose group: 224 mg of a test compound (160 mg in terms of Compound A) was orally administered once a day for 4 weeks and then 448 mg of a test compound (320 mg in terms of Compound A) was orally administered once a day for 48 weeks (158 patients)
(2) Low dose group: 224 mg of a test compound (160 mg in terms of Compound A) was orally administered once a day for 52 weeks (166 patients)
(3) Placebo group: placebo was orally administered once a day for 52 weeks (158 patients)
as §2
Furthermore, volume change of the whole brain and 101 areas (obtained by dividing the areas existing in both the left brain and the right brain of the Brodmann areas (1 to 52) into 101 areas) in each subject was quantified to assess brain atrophy based on the change from the screening.
Changes in the volume of the whole brain and the hippocampus after 52 weeks from the baseline were compared between the high dose group and the placebo group, and between the low dose group and the placebo group based on Mixed-effect Models. For models, the treatment groups were included as a fixed effect, age, baseline of the respective brain volumes (the whole brain or the hippocampus), baseline of MMSE and ApoE4 genotype (positive/negative) were included as covariates, and trial sites were included as a random effect.
Furthermore, changes in the respective volumes of the whole brain and the 101 areas after 52 weeks from the baseline were compared between the high dose group and the placebo group, and between the low dose group and the placebo group.

[3] = Compound A group vs placebo group, week 52 from baseline
[4] = Low dose (active drug) group, 160 mg in terms of Compound A oral once a day, 52 weeks, vMRI at week 52 from baseline
[5] = Low dose (active drug) group, vMRI at week 52 from baseline
[6] = High dose group (160 mg for 4 weeks then 320 mg in terms of Compound A, oral once a day, 48 weeks)
[7] = Low dose group (160 mg in terms of Compound A, oral once a day, 52 weeks)

SMILES: OC1CN(CCCOCCc2ccc3sccc3c2)C1 [Compound A, 1-(3-(2-(1-benzothiophen-5-yl)ethoxy)propyl)azetidin-3-ol]
- Change in the volume of the whole brain and the hippocampus versus placebo group (in words) [1, 3]: volume reduction tended to be smaller
- Change in brain volume, Hippocampus, Mean change [1, 4]: -0.21 mL
- Change in brain volume, Whole brain, Mean change [1, 4]: -3.83 mL
- Change in brain volume, Hippocampus, Difference from placebo group [1, 5]: 0.09 mL
- Change in brain volume, Whole brain, Difference from placebo group [1, 5]: 3.41 mL
- Change in the volume of the whole brain and the hippocampus versus placebo group (in words) [2, 3]: volume reduction tended to be smaller
- Volume reduction of the whole brain and the hippocampus versus placebo group (in words) ([2]; Compound A high dose group, analysis of whole brain and 101 areas): same tendency as in the low dose group was observed
- Volume reduction of the whole brain and the hippocampus versus placebo group (in words) ([2]; Compound A low dose group, analysis of whole brain and 101 areas (Nos. 6 and 14 in Table 2)): tended to be suppressed
- Change in brain volume, Hippocampus, Least square means [2, 6]: -0.31 mL
- Change in brain volume, Whole brain, Least square means [2, 6]: -20.05 mL
- Change in brain volume, Hippocampus, Difference from placebo group ([2]; High dose group): 0.08 mL
- Change in brain volume, Whole brain, Difference from placebo group ([2]; High dose group): 3.94 mL
- Change in brain volume, Hippocampus, Least square means [2, 7]: -0.27 mL
- Change in brain volume, Whole brain, Least square means [2, 7]: -21.37 mL
- Change in brain volume, Hippocampus, Difference from placebo group ([2]; Low dose group): 0.12 mL
- Change in brain volume, Whole brain, Difference from placebo group ([2]; Low dose group): 2.63 mL
- Change in brain volume, Mean value, Right-Cerebellum-White-Matter ([2]; Low dose group, week 52 from baseline, whole brain and 101 areas analysis): −0.89
